Earlier results on 2 molecules are cited in US20190000898A1, “COMBINING ADENOVIRUS AND CHEMOTHERAPEUTIC AGENTS FOR TREATING CANCER” (priority 2016, published 2019).

Series [1] deals with unresectable MPM. As to conditions: patients; p=0.02.
For series [2], the system named is syngeneic pancreatic tumors. As to conditions: immune-competent hamsters.

Take `N.N.[Cl][Pt][Cl]` [Cisplatin]: the median survival in series [1] is on record as 9 months. With `O=P1(N(CCCl)CCCl)NCCCO1` (centres unmarked) [cyclophosphamide], the “antitumor efficacy (tumor growth)” value in series [2] was “did not result in significant reduction of tumor growth”.
